Measurements published in US8222294B2, “Combinations of an anti emetic agent and an enkephalinase inhibitor” (Bioproject, priority 2004, dated 2012).
“Also recorded” adds a separate entry of the source. Read-outs that look alike come from different tables or passages of the source.

Experiments:
[1] = test system: castor oil-induced diarrhoea; assay: castor oil-induced diarrhoea in rats; type: in vivo
Experimental: The outstanding activity of the combinations of the invention was evidenced on an animal model of experimental diarrhoea. A combination of the invention was evaluated on the castor oil-induced diarrhoea in rats, according to Niemegeers et al. ([…]. (Drug Res), 1974, 24 No. 10). Rats received ondansetron (0.1 mg/kg, p.o.) and racecadotril (40 mg/kg, p.o.) administered together. […] As comparative examples, ondansetron and racecadotril were also administered alone at the same dosages.

[2] = test system: L.P.S. typhimurium-induced diarrhoea; assay: L.P.S. typhimurium-induced diarrhoea; type: in vivo; settings: dexecadotril 0.1 mg/kg alone
[3] = test system: abdominal pain (abdominal cramps elicited by rectal distention); assay: abdominal cramps elicited by rectal distention in trinitrobenzenesulfonic acid-pretreated rats; type: in vivo; settings: administered alone
Source text: The combinations of the invention involve a synergy against abdominal pain as the authors of the present invention have discovered using a classical model of abdominal pain in rodents (Morteau et al., Gastroenterology, 1993, 104, 47). Rats were […] trinitrobenzenesulfonic acid to induce intestinal inflammation and pain sensitivity, as assessed by evaluation of the abdominal cramps elicited by rectal distention.

[4] = test system: cytochrome P 450 subtypes; assay: interaction with cytochrome P 450 subtypes; type: in vitro ADME
[5] = drug metabolism pathway; type: in vitro ADME; settings: enkephalinase inhibitors
[6] = test system: E. coli toxins; settings: cited from earlier work
[7] = in vivo; cited from earlier work
[8] = 5-HT3 receptor inhibitors; cited from earlier work
[9] = test system: Salmonella; settings: cited from earlier work
[10] = test system: gastroenteritis; settings: cited from earlier work
[11] = test system: colonic transit; assay: colonic transit in rodents; type: in vivo; settings: enkephalinase inhibitor alone
Source text: This effect is blocked by co-administration of ondansetron. Since the transit is already strongly accelerated in gastroenteritis, the combinations of the present invention allow the antisecretory pro-absorptive activity of enkephalinase inhibitors to be exerted for a longer time upon the watery intestinal lumen content, thus resulting in a synergic antidiarrheal effect.

[12] = test system: abdominal cramps; settings: via protection of endogenous opioid peptides; cited from earlier work
[13] = racecadotril 40 mg/kg p.o. alone

Row | Structure (SMILES) | antidiarrheal activity ([1]; dexecadotril 0.1 mg/kg alone) | antidiarrheal activity [2] | prevention of pain manifestations [3] | interaction with cytochrome P 450 subtypes [4] | metabolism pathway [5] | antisecretory activity [6] | plasma half-life [7] | metabolism pathway [8] | antidiarrheal activity ([1]; ondansetron 0.1 mg/kg p.o. alone) | antidiarrheal activity ([1]; ondansetron 1 mg/kg alone) | prevention of hypersecretion [9] | diarrhoea [10] | emesis ([10]; particularly in children) | duration of protection [1, 13] | protection against diarrhoea [1, 13] | effect on colonic transit [11] | abdominal pain [10] | antinociceptive effect [12]
1 | CC(=O)SC[C@H](Cc1ccccc1)C(=O)NCC(=O)OCc1ccccc1 [dexecadotril] | an antidiarrheal activity; also recorded: only partially inactive | an antidiarrheal activity | partially prevent | do not significantly interact | mainly occurs via S-methylation | active |  |  |  |  |  |  |  |  |  |  |  | 
2 | CN1C2CCCC1CC(NC(=O)c1nn(C)c3ccccc13)C2 (stereo not drawn) [granisetron] |  |  |  |  |  |  | ~3 h | oxidation by various cytochrome P 450 subtypes |  |  |  |  |  |  |  |  |  | 
3 | Cc1nccn1CC1CCc2c(c3ccccc3n2C)C1=O (stereo not drawn) [ondansetron] |  |  | partially prevent |  |  | not | ~3 h | oxidation by various cytochrome P 450 subtypes | inactive | inactive | prevents the hypersecretion | not significantly affected or even increased; also recorded: fail to affect diarrhoea; also recorded: increase its duration | significantly reduced |  |  |  |  | 
4 | CC(=O)SCC(Cc1ccccc1)C(=O)NCC(=O)OCc1ccccc1 (stereo not drawn) [racecadotril] |  |  | partially prevent | do not significantly interact | mainly occurs via S-methylation | active | ~3 h |  |  |  |  |  |  | 4 h | partial protection | tend to accelerate colonic transit | significantly diminished | partial antinociceptive effect
